# Data: PubChem BioAssay AID248 (DTP/NCI, 2004)
# “And” between values parts separate entries of the source, which are not always exact repeats. Equal values may be shown once. Toxic doses and inconclusive results are not listed.
# System: L1210 leukemia ip in BDF1 mice, survival T/C
# Assay: NCI In Vivo Anticancer Drug Screen. Data for tumor model L1210 Leukemia (intraperitoneal) in B6D2F1 (BDF1) mice
# Settings: endpoint: mean survival time, higher = longer survival
# Outline: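 Tumor cells were implanted, animals were treated, and survival was followed. The result divides the treated measurement by the vehicle-control measurement.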
# [1] = dose: 200.0 mg/kg/injection, schedule: Q01DX001 (ip), vehicle: carboxymethylcellulose (CMC)
smiles,measurement,setting,value
CC(=O)OCC1OC(n2ccc(N)nc2=O)C(OC(C)=O)C1OC(C)=O (configuration not stated),T/C,"dose: 6.3 mg/kg/injection, schedule: Q01DX015 (oral), vehicle: carboxymethylcellulose (CMC)",117 % of control
same,T/C,"dose: 6.6 mg/kg/injection, schedule: Q03HX024 (ip), vehicle: carboxymethylcellulose (CMC)",156 % of control
same,T/C,"dose: 10.0 mg/kg/injection, schedule: Q01DX015 (ip), vehicle: saline",101 % of control
same,T/C,"dose: 11.0 mg/kg/injection, schedule: Q03HX008 (ip), vehicle: carboxymethylcellulose (CMC)",121 % of control
same,T/C,"dose: 11.0 mg/kg/injection, schedule: Q03HX024 (ip), vehicle: carboxymethylcellulose (CMC)",184 % of control
same,T/C,"dose: 12.5 mg/kg/injection, schedule: Q01DX015 (oral), vehicle: carboxymethylcellulose (CMC)",116 % of control
same,T/C,"dose: 15.0 mg/kg/injection, schedule: Q01DX015 (ip), vehicle: saline",117 % of control
same,T/C,"dose: 18.0 mg/kg/injection, schedule: Q03HX024 (ip), vehicle: carboxymethylcellulose (CMC)",207 % of control
same,T/C,"dose: 23.0 mg/kg/injection, schedule: Q01DX015 (ip), vehicle: saline",124 % of control
same,T/C,"dose: 25.0 mg/kg/injection, schedule: Q01DX015 (oral), vehicle: carboxymethylcellulose (CMC)",122 % of control
same,T/C,"dose: 30.0 mg/kg/injection, schedule: Q03HX024 (ip), vehicle: carboxymethylcellulose (CMC)",246 % of control
same,T/C,"dose: 35.0 mg/kg/injection, schedule: Q01DX015 (ip), vehicle: saline",150 % of control and 168 % of control
same,T/C,"dose: 37.0 mg/kg/injection, schedule: Q01DX009 (oral), vehicle: water",123 % of control
same,T/C,"dose: 37.0 mg/kg/injection, schedule: Q## X024 (oral), vehicle: water",100 % of control
same,T/C,"dose: 50.0 mg/kg/injection, schedule: Q01DX009 (ip), vehicle: saline",153 % of control
same,T/C,"dose: 50.0 mg/kg/injection, schedule: Q01DX009 (ip), vehicle: water",171 % of control
same,T/C,"dose: 50.0 mg/kg/injection, schedule: Q01DX009 (sc), vehicle: water",158 % of control
same,T/C,"dose: 51.0 mg/kg/injection, schedule: Q01DX009 (ip), vehicle: carboxymethylcellulose (CMC)",180 % of control
same,T/C,"dose: 51.0 mg/kg/injection, schedule: Q03HX008 (ip), vehicle: carboxymethylcellulose (CMC)",157 % of control
same,T/C,"dose: 55.0 mg/kg/injection, schedule: Q01DX015 (ip), vehicle: saline",201 % of control
same,T/C,"dose: 75.0 mg/kg/injection, schedule: Q01DX005 (oral), vehicle: water",121 % of control
same,T/C,"dose: 75.0 mg/kg/injection, schedule: Q01DX009 (oral), vehicle: water",117 % of control
same,T/C,"dose: 86.0 mg/kg/injection, schedule: Q01DX009 (ip), vehicle: carboxymethylcellulose (CMC)",213 % of control
same,T/C,"dose: 100.0 mg/kg/injection, schedule: Q01DX005 (ip), vehicle: saline",154 % of control and 164 % of control
same,T/C,"dose: 100.0 mg/kg/injection, schedule: Q01DX009 (ip), vehicle: saline",222 % of control
same,T/C,"dose: 100.0 mg/kg/injection, schedule: Q01DX009 (ip), vehicle: water",235 % of control
same,T/C,"dose: 100.0 mg/kg/injection, schedule: Q01DX009 (sc), vehicle: water",205 % of control
same,T/C,"dose: 100.0 mg/kg/injection, schedule: Q01DX011 (oral), vehicle: water",156 % of control and 175 % of control
same,T/C,"dose: 125.0 mg/kg/injection, schedule: Q01DX015 (ip), vehicle: saline",314 % of control
same,T/C,"dose: 150.0 mg/kg/injection, schedule: Q01DX001 (ip), vehicle: water",114 % of control
same,T/C,"dose: 150.0 mg/kg/injection, schedule: Q01DX001 (sc), vehicle: water",150 % of control
same,T/C,"dose: 150.0 mg/kg/injection, schedule: Q01DX005 (oral), vehicle: water",112 % of control
same,T/C,"dose: 150.0 mg/kg/injection, schedule: Q## X003 (oral), vehicle: water",120 % of control
same,T/C,"dose: 150.0 mg/kg/injection, schedule: Q## X024 (oral), vehicle: water",104 % of control and 113 % of control
same,T/C,"dose: 200.0 mg/kg/injection, schedule: Q01DX005 (ip), vehicle: saline",190 % of control and 198 % of control
same,T/C,"dose: 200.0 mg/kg/injection, schedule: Q01DX009 (ip), vehicle: saline",109 % of control
same,T/C,"dose: 200.0 mg/kg/injection, schedule: Q01DX009 (ip), vehicle: water",88 % of control
same,T/C,"dose: 200.0 mg/kg/injection, schedule: Q01DX009 (sc), vehicle: water",95 % of control
same,T/C,"dose: 200.0 mg/kg/injection, schedule: Q01DX011 (oral), vehicle: water",201 % of control
same,T/C,"dose: 250.0 mg/kg/injection, schedule: Q01DX001 (ip), vehicle: saline",116 % of control
same,T/C,"dose: 250.0 mg/kg/injection, schedule: Q01DX015 (ip), vehicle: saline",86 % of control
same,T/C,"dose: 300.0 mg/kg/injection, schedule: Q01DX001 (ip), vehicle: water",118 % of control
same,T/C,"dose: 300.0 mg/kg/injection, schedule: Q01DX001 (oral), vehicle: water",103 % of control and 108 % of control
same,T/C,"dose: 300.0 mg/kg/injection, schedule: Q01DX005 (oral), vehicle: water",184 % of control
same,T/C,"dose: 300.0 mg/kg/injection, schedule: Q01DX009 (oral), vehicle: water",167 % of control
same,T/C,"dose: 300.0 mg/kg/injection, schedule: Q07DX004 (oral), vehicle: water",103 % of control
same,T/C,"dose: 300.0 mg/kg/injection, schedule: Q## X006 (oral), vehicle: water",108 % of control
same,T/C,"dose: 300.0 mg/kg/injection, schedule: Q## X008 (oral), vehicle: water",112 % of control
same,T/C,"dose: 300.0 mg/kg/injection, schedule: Q## X024 (oral), vehicle: water",113 % of control
same,T/C,"dose: 400.0 mg/kg/injection, schedule: Q01DX011 (oral), vehicle: water",179 % of control
same,T/C,"dose: 600.0 mg/kg/injection, schedule: Q01DX001 (oral), vehicle: water",108 % of control and 114 % of control
same,T/C,"dose: 600.0 mg/kg/injection, schedule: Q01DX005 (oral), vehicle: water",153 % of control
same,T/C,"dose: 600.0 mg/kg/injection, schedule: Q01DX009 (oral), vehicle: water",185 % of control
same,T/C,"dose: 600.0 mg/kg/injection, schedule: Q07DX004 (oral), vehicle: water",107 % of control
same,T/C,"dose: 600.0 mg/kg/injection, schedule: Q## X003 (oral), vehicle: water",153 % of control
same,T/C,"dose: 600.0 mg/kg/injection, schedule: Q## X006 (oral), vehicle: water",114 % of control
same,T/C,"dose: 600.0 mg/kg/injection, schedule: Q## X024 (oral), vehicle: water",120 % of control
same,T/C,"dose: 660.0 mg/kg/injection, schedule: Q04DX003 (ip), vehicle: carboxymethylcellulose (CMC)",214 % of control
same,T/C,"dose: 800.0 mg/kg/injection, schedule: Q01DX011 (oral), vehicle: water",121 % of control
same,T/C,"dose: 1000.0 mg/kg/injection, schedule: Q01DX001 (ip), vehicle: saline",164 % of control
same,T/C,"dose: 1099.0 mg/kg/injection, schedule: Q01DX001 (ip), vehicle: carboxymethylcellulose (CMC)",160 % of control
same,T/C,"dose: 1099.0 mg/kg/injection, schedule: Q04DX003 (ip), vehicle: carboxymethylcellulose (CMC)",244 % of control
same,T/C,"dose: 1200.0 mg/kg/injection, schedule: Q01DX001 (oral), vehicle: water",115 % of control and 121 % of control
same,T/C,"dose: 1200.0 mg/kg/injection, schedule: Q01DX005 (oral), vehicle: water",153 % of control and 180 % of control
same,T/C,"dose: 1200.0 mg/kg/injection, schedule: Q01DX015 (oral), vehicle: carboxymethylcellulose (CMC)",100 % of control
same,T/C,"dose: 1200.0 mg/kg/injection, schedule: Q07DX004 (oral), vehicle: water",119 % of control
same,T/C,"dose: 1200.0 mg/kg/injection, schedule: Q## X003 (oral), vehicle: water",185 % of control
same,T/C,"dose: 1832.0 mg/kg/injection, schedule: Q01DX001 (ip), vehicle: carboxymethylcellulose (CMC)",156 % of control
same,T/C,"dose: 1832.0 mg/kg/injection, schedule: Q04DX003 (ip), vehicle: carboxymethylcellulose (CMC)",228 % of control
same,T/C,"dose: 2400.0 mg/kg/injection, schedule: Q01DX001 (oral), vehicle: water",109 % of control
same,T/C,"dose: 2400.0 mg/kg/injection, schedule: Q07DX004 (oral), vehicle: water",123 % of control
same,T/C,"dose: 2400.0 mg/kg/injection, schedule: Q## X003 (oral), vehicle: water",189 % of control
same,T/C,"dose: 2400.0 mg/kg/injection, schedule: Q## X006 (oral), vehicle: water",181 % of control
Cc1cccc[n+]1C,T/C,"dose: 50.0 mg/kg/injection, schedule: Q01DX001 (ip), vehicle: carboxymethylcellulose (CMC)",111 % of control
same,T/C,"dose: 100.0 mg/kg/injection, schedule: Q01DX001 (ip), vehicle: Klucel (hydroxypropylcellulose) (HPC)",95 % of control
same,T/C,"dose: 100.0 mg/kg/injection, schedule: Q01DX001 (ip), vehicle: carboxymethylcellulose (CMC)",92 % of control
same,T/C,"dose: 200.0 mg/kg/injection, schedule: Q01DX001 (ip), vehicle: Klucel (hydroxypropylcellulose) (HPC)",104 % of control
same,T/C,[1],103 % of control
Nc1ccc(CCC(=O)Nc2ccc(S(=O)(=O)F)cc2)c(Cl)c1,T/C,"dose: 100.0 mg/kg/injection, schedule: Q01DX001 (ip), vehicle: saline with Tween-80",101 % of control
same,T/C,"dose: 200.0 mg/kg/injection, schedule: Q01DX001 (ip), vehicle: saline with Tween-80",93 % of control
same,T/C,"dose: 400.0 mg/kg/injection, schedule: Q01DX001 (ip), vehicle: saline with Tween-80",88 % of control
Cc1cc(C)c(C(=O)O)c(O)c1,T/C,[1],93 % of control
